Assay results as given in US7244431B2, “Allergy vaccines and their preparation” (priority 2000, dated 2007).

Legend:
[1] = test system: birch pollen allergic patients; test: Skin prick testing of allergic patients; format: in vivo, human; conditions: 100 μg/ml
Description: SPTs were performed on the individuals forearms as described ([…]. et al. (1997) J. Clin Invest. 99, 1673-168; Dreborg S: (1989) J. Am. Acad. DerMatol. 21, 820-821). […] In addition standardized skin prick solutions (birch pollen extract and histamine) (Allergopharma, Reinbek, Germany) were tested. Reactions were recorded 20 minutes after SPT by photography and by transferring the ballpoint pen-surrounded wheal area with a scotch tape to paper.

[2] = test system: IgE antibodies in sera from birch pollen allergic patients; test: ELISA detection of peptide- and rBet v 1-specific IgE antibodies; format: binding, human
How it was run: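 Sera from 60 birch pollen allergic patients (rhinoconjunctivitis and/or asthma; skin prick and CAP RAST characterized) plus one non-atopic individual, diluted 1:3, incubated overnight at 4 °C on coated plates. Bound IgE detected with 1:1000 alkaline-phosphatase-coupled mouse anti-human IgE.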

[3] = NMR analysis for residual secondary or tertiary structure; format: physicochemical; conditions: water solution
Description: NMR was then used to check for residual secondary or tertiary structure. Compared to other spectroscopical approaches, this technique has the advantage that it provides positional information along the sequence.
Peptides were examined for tertiary and/or secondary structure by one and two-dimensional nuclear magnetic resonance (NMR) on a UNITY VARIAN 600 MHz spectrometer equipped with z-shielded gradient coils using 0.8-1.0 mM samples in 90% H2O/10% D2O, 20 mM potassium phosphate buffer pH 7.0, at 20° C. […] Mixing times used were 70 ms and 150 or 200 ms for TOCSY and NOESY experiments, respectively.
The absence of ring current shifted peaks in the region of the spectra below 0.5 ppm typical of well folded proteins is also a feature common to the spectra of the Bet v 1 peptides (data not shown). […] This peptide (P5), that in the Bet v 1 structure spans the whole C-terminal helix probably tends to form helical structures that aggregate in water solution.

With “CKAEQVKASKEMGETLLRAVESYLLAHSDAYN [Peptide P5, Bet v 1-derived synthetic peptide, position aa 130-160, one cysteine added]” the mean wheal diameter ([1]; individual 1) was 0 mm, the mean wheal diameter ([1]; individual 2) was 0 mm and the mean wheal diameter ([1]; individual 3) was 0 mm. The mean wheal diameter ([1]; individual 4) was 0 mm, the mean wheal diameter ([1]; individual 5) was 0 mm and the mean wheal diameter ([1]; individual 6 (allergic, without birch pollen allergy)) was 0 mm. For the same sequence, the “IgE (OD)” value ([2]; serum of NHS, non-allergic control individual) was “— (Dashes indicate reactivities below the cut-off level (OD=0.050))”, the “IgE (OD)” value ([2]; serum of patient 1) was “— (Dashes indicate reactivities below the cut-off level (OD=0.050))” and the “IgE (OD)” value ([2]; serum of patient 2) was “— (Dashes indicate reactivities below the cut-off level (OD=0.050))”. For the same sequence, the “IgE (OD)” value ([2]; serum of patient 3) was “— (Dashes indicate reactivities below the cut-off level (OD=0.050))”, the “IgE (OD)” value ([2]; serum of patient 4) was “— (Dashes indicate reactivities below the cut-off level (OD=0.050))” and the “IgE (OD)” value ([2]; serum of patient 5) was “— (Dashes indicate reactivities below the cut-off level (OD=0.050))”. The “IgE (OD)” value ([2]; serum of patient 6) was “— (Dashes indicate reactivities below the cut-off level (OD=0.050))”, the “IgE (OD)” value ([2]; serum of patient 7) was “— (Dashes indicate reactivities below the cut-off level (OD=0.050))” and the “IgE (OD)” value ([2]; serum of patient 8) was “— (Dashes indicate reactivities below the cut-off level (OD=0.050))”. For the same sequence, the “IgE (OD)” value ([2]; serum of patient 9) was “— (Dashes indicate reactivities below the cut-off level (OD=0.050))”, the “IgE (OD)” value ([2]; serum of patient 10) was “— (Dashes indicate reactivities below the cut-off level (OD=0.050))” and the “IgE (OD)” value ([2]; serum of patient 11) was “— (Dashes indicate reactivities below the cut-off level (OD=0.050))”. The “IgE (OD)” value ([2]; serum of patient 12) was “— (Dashes indicate reactivities below the cut-off level (OD=0.050))”, the “IgE (OD)” value ([2]; serum of patient 13) was “— (Dashes indicate reactivities below the cut-off level (OD=0.050))” and the “IgE (OD)” value ([2]; serum of patient 14) was “— (Dashes indicate reactivities below the cut-off level (OD=0.050))”. The “IgE (OD)” value ([2]; serum of patient 15) was “— (Dashes indicate reactivities below the cut-off level (OD=0.050))”, the “IgE (OD)” value ([2]; serum of patient 16) was “— (Dashes indicate reactivities below the cut-off level (OD=0.050))” and the “IgE (OD)” value ([2]; serum of patient 17) was “— (Dashes indicate reactivities below the cut-off level (OD=0.050))”. For the same sequence, the “IgE (OD)” value ([2]; serum of patient 18) was “— (Dashes indicate reactivities below the cut-off level (OD=0.050))”, the “IgE (OD)” value ([2]; serum of patient 19) was “— (Dashes indicate reactivities below the cut-off level (OD=0.050))” and the “IgE (OD)” value ([2]; serum of patient 20) was “— (Dashes indicate reactivities below the cut-off level (OD=0.050))”. The “IgE (OD)” value ([2]; serum of patient 21) was “— (Dashes indicate reactivities below the cut-off level (OD=0.050))”, the “IgE (OD)” value ([2]; serum of patient 22) was “— (Dashes indicate reactivities below the cut-off level (OD=0.050))” and the “IgE (OD)” value ([2]; serum of patient 23) was “— (Dashes indicate reactivities below the cut-off level (OD=0.050))”. For the same sequence, the “IgE (OD)” value ([2]; serum of patient 24) was “— (Dashes indicate reactivities below the cut-off level (OD=0.050))”, the “IgE (OD)” value ([2]; serum of patient 25) was “— (Dashes indicate reactivities below the cut-off level (OD=0.050))” and the “IgE (OD)” value ([2]; serum of patient 26) was “— (Dashes indicate reactivities below the cut-off level (OD=0.050))”. For the same sequence, the “IgE (OD)” value ([2]; serum of patient 27) was “— (Dashes indicate reactivities below the cut-off level (OD=0.050))”, the “IgE (OD)” value ([2]; serum of patient 28) was “— (Dashes indicate reactivities below the cut-off level (OD=0.050))” and the “IgE (OD)” value ([2]; serum of patient 29) was “— (Dashes indicate reactivities below the cut-off level (OD=0.050))”. The “IgE (OD)” value ([2]; serum of patient 30) was “— (Dashes indicate reactivities below the cut-off level (OD=0.050))”, the “IgE (OD)” value ([2]; serum of patient 31) was “— (Dashes indicate reactivities below the cut-off level (OD=0.050))” and the “IgE (OD)” value ([2]; serum of patient 32) was “— (Dashes indicate reactivities below the cut-off level (OD=0.050))”. The “IgE (OD)” value ([2]; serum of patient 33) was “— (Dashes indicate reactivities below the cut-off level (OD=0.050))”, the “IgE (OD)” value ([2]; serum of patient 34) was “— (Dashes indicate reactivities below the cut-off level (OD=0.050))” and the “IgE (OD)” value ([2]; serum of patient 35) was “— (Dashes indicate reactivities below the cut-off level (OD=0.050))”. The “IgE (OD)” value ([2]; serum of patient 36) was “— (Dashes indicate reactivities below the cut-off level (OD=0.050))”, the “IgE (OD)” value ([2]; serum of patient 37) was “— (Dashes indicate reactivities below the cut-off level (OD=0.050))” and the “IgE (OD)” value ([2]; serum of patient 38) was “— (Dashes indicate reactivities below the cut-off level (OD=0.050))”. For the same sequence, the “IgE (OD)” value ([2]; serum of patient 39) was “— (Dashes indicate reactivities below the cut-off level (OD=0.050))”, the “IgE (OD)” value ([2]; serum of patient 40) was “— (Dashes indicate reactivities below the cut-off level (OD=0.050))” and the “IgE (OD)” value ([2]; serum of patient 41) was “— (Dashes indicate reactivities below the cut-off level (OD=0.050))”. For the same sequence, the “IgE (OD)” value ([2]; serum of patient 42) was “— (Dashes indicate reactivities below the cut-off level (OD=0.050))”, the “IgE (OD)” value ([2]; serum of patient 43) was “— (Dashes indicate reactivities below the cut-off level (OD=0.050))” and the “IgE (OD)” value ([2]; serum of patient 44) was “— (Dashes indicate reactivities below the cut-off level (OD=0.050))”. For the same sequence, the “IgE (OD)” value ([2]; serum of patient 45) was “— (Dashes indicate reactivities below the cut-off level (OD=0.050))”, the “IgE (OD)” value ([2]; serum of patient 46) was “— (Dashes indicate reactivities below the cut-off level (OD=0.050))” and the “IgE (OD)” value ([2]; serum of patient 47) was “— (Dashes indicate reactivities below the cut-off level (OD=0.050))”. For the same sequence, the “IgE (OD)” value ([2]; serum of patient 48) was “— (Dashes indicate reactivities below the cut-off level (OD=0.050))”, the “IgE (OD)” value ([2]; serum of patient 49) was “— (Dashes indicate reactivities below the cut-off level (OD=0.050))” and the “IgE (OD)” value ([2]; serum of patient 50) was “— (Dashes indicate reactivities below the cut-off level (OD=0.050))”. For the same sequence, the “IgE (OD)” value ([2]; serum of patient 51) was “— (Dashes indicate reactivities below the cut-off level (OD=0.050))”, the “IgE (OD)” value ([2]; serum of patient 52) was “— (Dashes indicate reactivities below the cut-off level (OD=0.050))” and the “IgE (OD)” value ([2]; serum of patient 53) was “— (Dashes indicate reactivities below the cut-off level (OD=0.050))”. For the same sequence, the “IgE (OD)” value ([2]; serum of patient 54) was “— (Dashes indicate reactivities below the cut-off level (OD=0.050))”, the “IgE (OD)” value ([2]; serum of patient 55) was “— (Dashes indicate reactivities below the cut-off level (OD=0.050))” and the “IgE (OD)” value ([2]; serum of patient 56) was “— (Dashes indicate reactivities below the cut-off level (OD=0.050))”. For the same sequence, the “IgE (OD)” value ([2]; serum of patient 57) was “— (Dashes indicate reactivities below the cut-off level (OD=0.050))”, the “IgE (OD)” value ([2]; serum of patient 58) was “— (Dashes indicate reactivities below the cut-off level (OD=0.050))” and the “IgE (OD)” value ([2]; serum of patient 59) was “— (Dashes indicate reactivities below the cut-off level (OD=0.050))”. For the same sequence, the “IgE (OD)” value ([2]; serum of patient 60) was “— (Dashes indicate reactivities below the cut-off level (OD=0.050))” and the “aggregation (NMR)” value [3] was “unusually broad resonances suggesting aggregation”.
